From publication PMC7948503, “Optimization of a peptide ligand for the adhesion GPCR ADGRG2 provides a potent tool to explore receptor biology” (The Journal of Biological Chemistry, 2020)
pEC50: −log10 of the molar value. Non-standard residues stand in square brackets, D forms with d. Residues, ends and D or L forms follow the SMILES beside them. *: point of attachment. FITC = O=C1OC2(c3ccc(O)cc3Oc3cc(O)ccc32)c2ccc(NC(=S)*)cc21; Phe(4-Me) = Cc1ccc(C[C@H](N)C(=O)O)cc1

Tests used:
Rluc-ADGRG2-ΔGPS-β WT = target: T1, Rluc-ADGRG2-ΔGPS-β WT (Mus musculus, UniProt Q8CJ12); test: BRET binding of FITC-VPM-p15; details: receptor WT
T1 construct: the entire ECD (including the entire GPS motif) was removed (ADGRG2-ΔGPS-β); expressed in transfected cells; host or cells: HEK293
T1 sequence (Q8CJ12 618-1009 limits assumed, stated change not applied): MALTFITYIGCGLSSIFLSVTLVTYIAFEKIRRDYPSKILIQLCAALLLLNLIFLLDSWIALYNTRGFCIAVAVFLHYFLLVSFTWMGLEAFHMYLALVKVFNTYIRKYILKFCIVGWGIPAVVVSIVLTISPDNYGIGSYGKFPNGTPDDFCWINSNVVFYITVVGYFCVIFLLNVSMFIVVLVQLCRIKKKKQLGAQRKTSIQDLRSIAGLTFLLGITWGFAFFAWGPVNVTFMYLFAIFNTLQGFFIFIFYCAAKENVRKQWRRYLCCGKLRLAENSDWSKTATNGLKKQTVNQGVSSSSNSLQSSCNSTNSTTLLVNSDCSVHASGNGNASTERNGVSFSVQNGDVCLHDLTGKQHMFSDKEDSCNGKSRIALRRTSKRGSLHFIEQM
Protocol: (§1) The binding capacities of ADGRG2 WT or its mutants for VPM-p15 were determined by BRET assay, which has been used in previous studies ([27], [28], [29]). We fused the N terminus of ADGRG2 with a Rluc fragment and coupled FITC to the C terminus of VPM-p15 to facilitate BRET measurement. We stimulated the HEK293 cells transfected with Rluc-ADGRG2-ΔGPS-β wildtype (WT) or mutants by increasing the concentration of FITC-conjugated VPM-p15, and their binding abilities were determined by fitting the data with the saturation curves.
(§2) In the detection of binding capacities of ADGRG2 WT or its mutants for VPM-p15, HEK293 cells were transfected with Rluc-ADGRG2-ΔGPS-β or mutants. Transfected cells were stimulated by increasing the concentration of FITC-conjugated VPM-p15. Binding capacities were determined by BRET, EC50 values of ADGRG2 WT and its mutants for binding VPM-p15 were calculated by GraphPad, and data were normalized by EC50 of WT.

Rluc-ADGRG2-ΔGPS-β Y611A = target: T2, Rluc-ADGRG2-ΔGPS-β Y611A (Mus musculus, UniProt Q8CJ12, Y625A); test: BRET binding of FITC-VPM-p15; details: mutant Y611A
T2 construct: the entire ECD (including the entire GPS motif) was removed (ADGRG2-ΔGPS-β); expressed in transfected cells; host or cells: HEK293
T2 sequence (Q8CJ12 618-1009 Y625A limits assumed): as the sequence (Q8CJ12 618-1009 limits assumed, stated change not applied) above, with Y8A counted along it
Protocol: as §1, §2

Rluc-ADGRG2-ΔGPS-β V834A = target: T3, Rluc-ADGRG2-ΔGPS-β V834A (Mus musculus, UniProt Q8CJ12, V848A); test: BRET binding of FITC-VPM-p15; details: mutant V834A
T3 construct: expressed in transfected cells; host or cells: HEK293
T3 sequence (Q8CJ12 614-1009 V848A): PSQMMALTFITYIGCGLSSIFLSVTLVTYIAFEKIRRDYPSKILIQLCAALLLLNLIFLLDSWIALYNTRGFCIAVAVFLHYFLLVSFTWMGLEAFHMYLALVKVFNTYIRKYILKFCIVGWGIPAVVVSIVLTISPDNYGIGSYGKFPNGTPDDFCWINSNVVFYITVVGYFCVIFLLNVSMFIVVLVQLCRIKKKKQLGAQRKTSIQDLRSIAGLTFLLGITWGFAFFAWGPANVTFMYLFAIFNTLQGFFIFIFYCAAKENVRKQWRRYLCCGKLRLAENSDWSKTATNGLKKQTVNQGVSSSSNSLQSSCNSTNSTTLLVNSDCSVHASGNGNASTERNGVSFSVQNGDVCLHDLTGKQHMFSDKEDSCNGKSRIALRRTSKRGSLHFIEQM
Protocol: as §1, §2

Rluc-ADGRG2-ΔGPS-β V731A = target: T4, Rluc-ADGRG2-ΔGPS-β V731A (Mus musculus, UniProt Q8CJ12, V745A); test: BRET binding of FITC-VPM-p15; details: mutant V731A
T4 construct: the entire ECD (including the entire GPS motif) was removed (ADGRG2-ΔGPS-β); expressed in transfected cells; host or cells: HEK293
T4 sequence (Q8CJ12 618-1009 V745A limits assumed): as the sequence (Q8CJ12 618-1009 limits assumed, stated change not applied) above, with V128A counted along it
Protocol: as §1, §2

Rluc-ADGRG2-ΔGPS-β F838A = target: T5, Rluc-ADGRG2-ΔGPS-β F838A (Mus musculus, UniProt Q8CJ12, F852A); test: BRET binding of FITC-VPM-p15; details: mutant F838A
T5 construct: expressed in transfected cells; host or cells: HEK293
T5 sequence (Q8CJ12 614-1009 F852A): as the sequence (Q8CJ12 614-1009 V848A) above, with A235V, F239A counted along it
Protocol: as §1, §2

Rluc-ADGRG2-ΔGPS-β V774A = target: T6, Rluc-ADGRG2-ΔGPS-β V774A (Mus musculus, UniProt Q8CJ12, V788A); test: BRET binding of FITC-VPM-p15; details: mutant V774A
T6 construct: expressed in transfected cells; host or cells: HEK293
T6 sequence (Q8CJ12 614-1009 V788A): as the sequence (Q8CJ12 614-1009 V848A) above, with V175A, A235V counted along it
Protocol: as §1, §2

Rluc-ADGRG2-ΔGPS-β F747A = target: T7, Rluc-ADGRG2-ΔGPS-β F747A (Mus musculus, UniProt Q8CJ12, F761A); test: BRET binding of FITC-VPM-p15; details: mutant F747A
T7 construct: the entire ECD (including the entire GPS motif) was removed (ADGRG2-ΔGPS-β); expressed in transfected cells; host or cells: HEK293
T7 sequence (Q8CJ12 618-1009 F761A limits assumed): as the sequence (Q8CJ12 618-1009 limits assumed, stated change not applied) above, with F144A counted along it
Protocol: as §1, §2

Rluc-ADGRG2-ΔGPS-β S661A = target: T8, Rluc-ADGRG2-ΔGPS-β S661A (Mus musculus, UniProt Q8CJ12, S675A); test: BRET binding of FITC-VPM-p15; details: mutant S661A
T8 construct: the entire ECD (including the entire GPS motif) was removed (ADGRG2-ΔGPS-β); expressed in transfected cells; host or cells: HEK293
T8 sequence (Q8CJ12 618-1009 S675A limits assumed): as the sequence (Q8CJ12 618-1009 limits assumed, stated change not applied) above, with S58A counted along it
Protocol: as §1, §2

Rluc-ADGRG2-ΔGPS-β F772A = target: T9, Rluc-ADGRG2-ΔGPS-β F772A (Mus musculus, UniProt Q8CJ12, F786A); test: BRET binding of FITC-VPM-p15; details: mutant F772A
T9 construct: expressed in transfected cells; host or cells: HEK293
T9 sequence (Q8CJ12 614-1009 F786A): as the sequence (Q8CJ12 614-1009 V848A) above, with F173A, A235V counted along it
Protocol: as §1, §2

Rluc-ADGRG2-ΔGPS-β V768A = target: T10, Rluc-ADGRG2-ΔGPS-β V768A (Mus musculus, UniProt Q8CJ12, V782A); test: BRET binding of FITC-VPM-p15; details: mutant V768A
T10 construct: the entire ECD (including the entire GPS motif) was removed (ADGRG2-ΔGPS-β); expressed in transfected cells; host or cells: HEK293
T10 sequence (Q8CJ12 618-1009 V782A limits assumed): as the sequence (Q8CJ12 618-1009 limits assumed, stated change not applied) above, with V165A counted along it
Protocol: as §1, §2

Rluc-ADGRG2-ΔGPS-β W757A = test: BRET binding of FITC-VPM-p15; design: species or system mouse; details: HEK293, BRET saturation binding, repeated 6 times
Protocol: as §1, §2

Rluc-ADGRG2-ΔGPS-β I758A = test: BRET binding of FITC-VPM-p15; design: species or system mouse; details: HEK293, BRET saturation binding, repeated 6 times
Protocol: as §1, §2

Rluc-ADGRG2-ΔGPS-β W824A = test: BRET binding of FITC-VPM-p15; design: species or system mouse; details: HEK293, BRET saturation binding, repeated 6 times
Protocol: as §1, §2

ADGRG2-ΔGPS-β Y666A = target: T11, ADGRG2-ΔGPS-β Y666A (Mus musculus, UniProt Q8CJ12, Y680A); test: GloSensor cAMP assay; assay type: cell-based; details: mutant Y666A; HEK293, cAMP Glosensor
T11 construct: expressed in transfected cells; host or cells: HEK293
T11 sequence (Q8CJ12 614-1009 Y680A): as the sequence (Q8CJ12 614-1009 V848A) above, with Y67A, A235V counted along it
Source text: (§3) Wildtype ADGRG2 full-length (ADGRG2-FL) was cloned from mouse total cDNA libraries using the following primers: forward, […]; reverse, […], and then ADGRG2-FL, ADGRG2 C-terminal truncation mutant (ADGRG2-β), and ADGRG2-ΔGPS-β (the entire ECD of ADGRG2 was deleted) were subcloned into the pcDNA3.1 expression vector. The ADGRG2-ΔGPS-β mutants (T610A, Y611A, C614A, S661A, W662A, I663A, L665A, Y666A，N667A, F671A, L679A, L683A, I730A, V731A, F741A, F747A, W757A, I758A, N759A, S760A, V762A, F764A, Y765A, V768A, V769A, F772A, V774A, W824A, F826A, F828A, F829A, V834A, V836A, F838A, M839A, I844A, F845A) were generated using a QuikChange Mutagenesis Kit (Stratagene). All mutations were verified by DNA sequencing.
(§4) The Glosensor cAMP assay was performed as described ([6], [39], [40]). HEK293 cells were transfected with the GloSensor plasmid and the desired expression plasmids in 24-well dishes. Twenty-four hours after transfection, the cells were plated on 96-well plates at a cell density of 20,000 cells/well. The cells were maintained in Dulbecco’s modified Eagle’s medium for another 24 h, washed with PBS, and then incubated with 100 μl of solution containing 10% fetal bovine serum, 2% (v/v) GloSensor cAMP reagent, and 88% CO2-independent medium in each well for 2 h. The cAMP signal was examined using a luminescence counter (Mithras LB 940).

ADGRG2-ΔGPS-β F838A = target: T12, ADGRG2-ΔGPS-β F838A (Mus musculus, UniProt Q8CJ12, F852A); test: GloSensor cAMP assay; assay type: cell-based; details: mutant F838A; HEK293, cAMP Glosensor
T12 construct: expressed in transfected cells; host or cells: HEK293
T12 sequence (Q8CJ12 614-1009 F852A): as the sequence (Q8CJ12 614-1009 V848A) above, with A235V, F239A counted along it
Source text: as §3, §4

[1] = Kd(mutated ADGRG2-ΔGPS-β)/Kd(WT)

Which Fmut (Rluc-ADGRG2-ΔGPS-β WT; [1]) does the source give for CC[C@H](C)[C@H](NC(=O)CNC(=O)[C@H](Cc1ccc(C)cc1)NC(=O)[C@H](CO)NC(=O)[C@@H](N)C(C)C)C(=O)N[C@@H](CC(C)C)C(=O)N[C@@H](CC(C)C)C(=O)N[C@@H](CC(=O)O)C(=O)N[C@@H](CC(C)C)C(=O)N[C@@H](CO)C(=O)N[C@@H](CCCNC(=N)N)C(=O)N[C@H](C(=O)N[C@@H](CO)C(=O)N[C@@H](CC(C)C)C(=O)N1CCC[C@H]1C(=O)N[C@@H](CCCCNC(=S)Nc1ccc2c(c1)C(=O)OC21c2ccc(O)cc2Oc2cc(O)ccc21)C(=O)O)[C@@H](C)O [FITC-VPM-p15] (H-VS[Phe(4-Me)]GILLDLSRTSLPK(FITC)-OH; N-terminus and C-terminus assumed) here?
The Fmut was 1.000.

And the Bmax (Rluc-ADGRG2-ΔGPS-β WT; binding Bmax (BRET))?
The Bmax was 0.809±0.015.

What about the Fmut (Rluc-ADGRG2-ΔGPS-β Y611A; [1]) of the same compound?
Its Fmut is 0.761.

What about the Bmax (Rluc-ADGRG2-ΔGPS-β Y611A; binding Bmax (BRET)) of the same compound?
The Bmax was 0.7912±0.020.

And the Fmut (Rluc-ADGRG2-ΔGPS-β V834A; [1])?
The Fmut was 1.196.

And the Bmax (Rluc-ADGRG2-ΔGPS-β V834A; binding Bmax (BRET))?
The Bmax was 0.789±0.016.

What about the Bmax (Rluc-ADGRG2-ΔGPS-β V731A) of the same compound?
The Bmax was 0.7903±0.018.

And the Fmut (Rluc-ADGRG2-ΔGPS-β F838A; [1])?
Its Fmut is 0.819.

And the Bmax (Rluc-ADGRG2-ΔGPS-β F838A; binding Bmax (BRET))?
Its Bmax is 0.793±0.022.

And the Fmut (Rluc-ADGRG2-ΔGPS-β V774A; [1])?
Its Fmut is 1.149.

And the Bmax (Rluc-ADGRG2-ΔGPS-β V774A; binding Bmax (BRET))?
Its Bmax is 0.820±0.032.

And the Fmut (Rluc-ADGRG2-ΔGPS-β F747A; [1])?
The Fmut was 0.811.

What about the Bmax (Rluc-ADGRG2-ΔGPS-β F747A; binding Bmax (BRET)) of the same compound?
The Bmax was 0.813±0.041.

And the Fmut (Rluc-ADGRG2-ΔGPS-β S661A; [1])?
Its Fmut is 0.832.

What about the Bmax (Rluc-ADGRG2-ΔGPS-β S661A; binding Bmax (BRET)) of the same compound?
The Bmax was 0.6895±0.021.

And the Fmut (Rluc-ADGRG2-ΔGPS-β F772A; [1])?
Its Fmut is 0.903.

And the Bmax (Rluc-ADGRG2-ΔGPS-β F772A; binding Bmax (BRET))?
The Bmax was 0.795±0.021.

And the Fmut (Rluc-ADGRG2-ΔGPS-β V768A; [1])?
The Fmut was 1.112.

And the Bmax (Rluc-ADGRG2-ΔGPS-β V768A; binding Bmax (BRET))?
Its Bmax is 0.792±0.029.

And the “Binding to mutant (result in words across EC50 / Fmut / Bmax)” value (Rluc-ADGRG2-ΔGPS-β W757A)?
Its value is “No binding”.

And the “Binding to mutant (result in words across EC50 / Fmut / Bmax)” value (Rluc-ADGRG2-ΔGPS-β I758A)?
Its value is “No binding”.

And the “Binding to mutant (result in words across EC50 / Fmut / Bmax)” value (Rluc-ADGRG2-ΔGPS-β W824A)?
The value was “No binding”.

CC[C@H](C)[C@H](NC(=O)CNC(=O)[C@H](Cc1ccc(C)cc1)NC(=O)[C@H](CO)NC(=O)[C@@H](N)C(C)C)C(=O)N[C@@H](CC(C)C)C(=O)N[C@@H](CC(C)C)C(=O)N[C@@H](CC(=O)O)C(=O)N[C@@H](CC(C)C)C(=O)N[C@@H](CO)C(=O)N[C@@H](CCCNC(=N)N)C(=O)N[C@H](C(=O)N[C@@H](CO)C(=O)N[C@@H](CC(C)C)C(=O)N1CCC[C@H]1C(=O)O)[C@@H](C)O [VPM-p15] (H-VS[Phe(4-Me)]GILLDLSRTSLP-OH) was tested. Which pEC50 (ADGRG2-ΔGPS-β Y666A) did it give?
The pEC50 was 5.95.

What about the pEC50 (ADGRG2-ΔGPS-β F838A) of the same compound?
Its pEC50 is 5.77.
